For the experiment, the system named is plated pancreatic progenitors. The experiment can be described thus: Latrunculin A at different stages of SC-β cell differentiation of plated pancreatic progenitors (flow cytometry, GSIS, insulin content, qRT-PCR). The class given is cell-based, human. An excerpt:
For experiments investigating the effects of plating pancreatic progenitors, cells were differentiated with the suspension protocol for stages 1-3. At the end of stage 3, clusters were single cell dispersed with TrypLE and plated onto tissue culture plates coated with various ECM proteins at 0.625×10^6 cells/cm^2. Differentiation media for the remainder of this hybrid protocol were the same as for the suspension protocol with the exception that Y-27632 and Activin A were omitted on days 2-5 of stage 4. […] A variety of ECM coatings were initially tested with this plating methodology, including collagen I (Corning, 354249), collagen IV (Corning, 354245), fibronectin (Gibco, 33016-015), vitronectin (Gibco, A14700), matrigel (Corning, 356230), gelatin (Fisher, G7-500), and laminins 111, 121, 211, 221, 411, 421, 511, and 521 (Biolamina, LNKT-0201). All subsequent experiments with this hybrid protocol were performed on collagen I.
RNA was extracted from either whole clusters or cells directly on the plate with the RNeasy Mini Kit (Qiagen, 74016). Samples were treated with a DNAse kit (Qiagen, 79254) during extraction. The High Capacity cDNA Reverse Transcriptase Kit (Applied Biosystems, 4368814) was used to synthesize cDNA on a thermocycler (Applied Biosystems, A37028). The PowerUp SYBR Green Master Mix (Applied Biosystems, A25741) was used on a StepOnePlus (Applied Biosystems), and real time PCR results were analyzed using a ΔΔCt methodology. TBP and GUSB were both used as housekeeping genes. Primer sequences were as follows.
Cells were single-cell dispersed with TrypLE and fixed with 4% PFA for 30 minutes. Cells were then washed with PBS and incubated with ICC solution for 45 minutes at room temperature, incubated with primary antibodies overnight at 4° C., and incubated with secondary antibodies for 2 hours at room temperature. Cells were then washed twice with ICC solution and filtered before running on the LSRII flow cytometer (BD Biosciences). Analysis was completed with FlowJo.
Static GSIS: To assess the function of cells produced by the hybrid protocol, static GSIS was performed with cells still attached to 96 or 24-well tissue culture plates. To assess function of clusters generated with the planar protocol, approximately 30 clusters were collected and placed in tissue culture transwell inserts (MilliporeSigma, PIXP01250) in a 24-well plate. […] Cells were first incubated in a 2 mM glucose KRB solution at 37° C. for one hour, after which this solution was discarded and replaced with fresh 2 mM glucose KRB. After an additional hour, the supernatant was collected. 20 mM glucose KRB was added for the next hour, after which the supernatant was again collected. Cells were washed with fresh KRB during each solution change. Cells were then single-cell dispersed with TrypLE and counted with the Vi-Cell XR (Beckman Coulter). Supernatants from the low and high glucose challenges were quantified with a human insulin ELISA (ALPCO, 80-INSHU-E10.1), and cell counts were used to normalize insulin secretion.
Whole SC-β cell clusters or cells attached to culture plates were washed twice thoroughly with PBS. Half of the clusters or an equivalent well of plated cells were immersed in TrypLE for cell counts on the Vi-Cell XR. For the other half of the samples, a solution of 1.5% HCl and 70% ethanol was added to either the clusters in eppendorf tubes or directly onto plated cells. After 15 minutes, the plated cells were pipetted vigorously and transferred to eppendorf tubes. The eppendorf tubes from both clusters and plated cells were kept at −20° C. for 72 hours, vortexing vigorously every 24 hours. Samples were then centrifuged at 2100 RCF for 15 minutes. […] Proinsulin and insulin secretion were normalized to the viable cell counts.
On the technique in general: A flow cytometer gives signals particle by particle.

Where [1] appears, read: 24 hour 1 μM treatment, stage 5.

On to `C/C1=C/C(=O)O[C@@H]2C[C@@H](CC[C@H](C)/C=C\C=C\CC1)O[C@@](O)([C@@H]1CSC(=O)N1)C2` [latrunculin A], for which the “endocrine induction, SC-β cell specification and GSIS” value (0.5 μM added during stage 5) was “greatest increase in endocrine induction, SC-β cell specification, and glucose-stimulated insulin secretion (GSIS)”. Moreover, the “endocrine induction and β-cell specification” value (0.5 μM throughout either stage 4 or stage 6) was “increased both general endocrine induction (CHGA+) and β-cell specification (NKX6-1+/c-peptide+)”. In addition, for the setting “1 μM during the first 24 hours of stage 5”, the “GSIS, optimization of duration and concentration during stage 5” value was “most benefit at the shortest and lowest dose”. Further, under setting [1], the “expression of endocrine genes” value was “increased expression of endocrine genes”, the “expression of markers associated with other endodermal lineages” value was “reduced”, the pro-insulin/insulin ratio entry is “improved pro-insulin/insulin ratio” and the total insulin content entry is recorded as “increased total insulin content”.

The record behind these values is patent publication US20210207099A1, “METHODS AND COMPOSITIONS FOR GENERATING CELLS OF ENDODERMAL LINEAGE AND BETA CELLS AND USES THEREOF” (priority 2018, published 2021).
